Results taken from patent US7388006B2, “Non-steroidal progesting” (Bayer Schering Pharma AG, priority 2002, dated 2008).
Values belong to the compound of their own block, whether it stands above or below them.

How the values were obtained:
PR-A = type: cell-based; settings: PR-A efficacy minus PR-B efficacy
Protocol: The method for screening for PR isoform-specific progestins according to the present invention is carried out with first and second SK-N-MC cells stably transfected with a plasmid expressing the HPR-A (first cells) or the hPR-B (second cells) and the LUC reporter gene linked to the hormonally responsive MTV promoter.
The cells are cultured in Minimum Essential Medium with Earl's Salts (S-MEM, without L-glutamine; Gibco BRL, no. 21090-022), supplemented with 10% fetal calf serum (FCS), penicillin 100U/streptomycin 100 μg/ml (Biochrom, no. A2213), L-glutamine 4 mmol/l (Gibco BRL, no. 25030-024), sodium pyruvate 1 mmol/l (Biochrom, no. L0473) and 1×non-essential amino acids (Biochrom, no. K0293) at a temperature of 37° C. and in an atmosphere of 5% carbon dioxide.
For the transcription assay, the cells are seeded onto 96-well dishes (2×10^4 cells/dish) and cultured in a medium as described above, with the exception that the FCS is replaced by a 3% charcoal stripped FCS. 48 hours later, cells are contacted with prediluted test compounds. For determination of agonistic activity, cells are cultured in the presence of 6 increasing concentrations (10^−6 to 10^−11 mol/l) of test progestins. As a positive control for reporter gene induction cells are treated with 10^−6 to 10^−11 mol/l R5020 (promegestone). As a negative control for reporter gene induction, cells are cultured in 1% ethanol.
After incubation with test progestins for 24 hours, the medium is removed and cells are lysed with 20 μl of lysis buffer (Luciferase Assay System E 153A; Promega) and under agitation of the plate for 101 min. After addition of 30 μl of luciferase reagent (Luciferase Assay System E 151A+152A; Promega) within 30 seconds per plate, the activity of the luciferase reporter gene product is determined in the cell lysates by means of a Microlite ML 3000 microtiter plate luminometer (Dynatech) in cycle mode.
Evaluation of the response gives the efficacy [%], and evaluation of the EC50s values gives the potency [nM]. Calculation of the agonistic activity is conducted as follows:
The LUC activity [%] for the measured data points is calculated as follows:
[formula] wherein CI=100% stimulation (R5020, 10^−7 mol/l) and CO=0% stimulation (ethanol, 1%).
Thus, the efficacy [%] is calculated according to: […]
The potency [nM], i.e. the EC50, is determined graphically.

rat mammary epithelium = assay: MIB-5 immunohistochemistry, proliferation of the mammary epithelium; type: in vivo; settings: 0.3 mg/kg/d, FIG. 2
Protocol: In order to determine the effects of test progestins according to the present invention, in particular compound ((+)-1), in mammary gland differentiation and proliferation, premature female rats (Wistar Han, SPF) are ovariectomized at the age of 21 days, 4 to 6 days before treatment start. The animals are treated for 6 days with standard estrogen (estrone (E1), 70 μg/kg) and the test progestin ((+)-1) (application volume: 0.1 ml/50 g body weight; vehicle: benzylbenzoate/castor oil (1+4 v/v); subcutaneous). Control groups are e.g.: vehicle, estrone without progestin, estradiol together with a known progestin, e.g. R5020 (promegestone). After the 6-day treatment the animals are killed with carbon dioxide.
For the whole mount staining, animals are shaved in the left abdominal inguinal mammary region, which is cut from the body together with the skin. For the histological/immunohistochemical analyses the right abdominal inguinal mammary gland is cut from the body together with the connective-tissue adhered thereto and fixed in 3.7% formalin in PBS (phosphate buffer saline; without Ca^2+/Mg^2+).
For a more detailed evaluation of the proliferation of the mammary epithelium, cells are stained with the proliferation marker MIB-5 as follows (cf. FIG. 2): Mammary glands are fixed in 4% formaldehyde/PBS for 24 h and embedded in paraffm. 4 μm sections are spread on slides, deparaffinized, treated with microwaves for 10 min. in citrate buffer pH 6.0 and rinsed with PBS. Slides are then blocked with 3% H2O2/methanol for 15 min., Blockingkit (Vektor, no. SP-2001) for 10 min. and rat serum (Sigma, no. S-7648) diluted 1:2 in PBS for 30 min to reduce nonspecific staining and rinsed in PBS. Slides are incubated for 1 hour with monoclonal antibody MIB-5 (Dianova, no. Dia-5055), which is specific for the rat Ki-67 antigen (1:200 diluted in PBS/0.2% BSA). […]
In order to characterize a test compound, the percentage of MIB-5 stained mammary epithelium cells is determined. […]

[1] = system: pregnancy in ovariectomized rats; assay: Pregnancy maintenance test in rat; type: in vivo; settings: ovariectomized pregnant rats, with estrone
Excerpt: In rats, castration induces termination of pregnancy. Progestins (combined with estrogens) are capable of maintaining pregnancy in castrated animals. However, the degree of pregnancy maintenance in castrated rats is optimal only in a defined dose range. Therefore, higher as well as lower doses generally induce a weaker effect. Accompanying treatment with defined doses of estrone (E1) increases the pregnancy maintaining effect of progestins.
Pregnant rats (Wistar Han, SPF) of 190 to 220 g (5 to 8 animals per dose) are ovariectomized on day 8 of pregnancy, 2 hours after the first substance administration. From day 8 to day 14, rats are daily treated with test progestin in combination with a standard dose of E1. One day later, animals are killed with carbon dioxide. For each animal, the number of living and dead fetuses is determined according to the heartbeat of the embryos. In case of empty uteri, the number of implantation sites is determined by means of staining with a 10% ammonium sulfide solution.
S.c. (subcutaneous) application: The test progestin is dissolved in benzyl benzoate/castor oil (1+4 v/v), and the daily dose is administered in a volume of 1 ml/kg body weight.
P.o. (peroral) application: The test progestin is suspended in a carrier liquid (85 mg Myrj^R in 100 ml 0.9% w/v NaCl solution), and the daily dose is administered in a volume of 2 ml/kg body weight.
I.p. (intraperitoneal) application: The test progestin is dissolved in propylene glycol and charged in miniature osmotic pumps (type 2001, 1.0 μl/h, 7 days), which are placed in the abdominal cavity of the rat.
The standard dose of estrone is 0.005 mg/kg body weight s.c. and is dissolved in benzyl benzoate/castor oil ([…]).
It is determined the pregnancy maintenance per animal [%], the pregnancy maintenance per dose (median of single values) and the EC50 (dose, at which pregnancy is maintained in 50% of the animals; 100% corresponds to control animals that are not ovariectomized). The results of the test are further discussed below in c).

Compound: O=C1OCc2cc(NC(=O)C(O)(CC3(c4cccc(C(F)(F)F)c4F)CC3)C(F)(F)F)ccc21 (single isomer, unassigned; (+)) [((+)-4), (+)-5-{2-hydroxy-3-[1-(2-fluoro-3-trifluoromethylphenyl)-cyclopropyl]-2-trifluoromethyl-propionylamino}-phthalide]
Δ agonism efficacies (A-B) (PR-A): 18

Compound: Cc1noc(=O)c2ccc(NC(=O)C(C)(O)CC3(c4cccc(C(F)(F)F)c4)CC3)cc12 (single isomer, unassigned; (-)) [((−)-3), (−)-6-{2-Hydroxy-3-[1-(3-trifluoromethylphenyl)-cyclopropyl]-2-methyl-propionylamino}-4-methyl-2,3-benzoxazin-1-one]
melting point: 129 to 130 °C

Compound: Cc1noc(=O)c2ccc(NC(=O)C(O)(CC3(c4cccc(C(F)(F)F)c4F)CC3)C(F)(F)F)cc12 (single isomer, unassigned; (+)) [((+)-2), (+)-6-{2-hydroxy-3-[1-(2-fluoro-3-trifluoromethylphenyl)-cyclopropyl]-2-trifluoro-methyl-propionylamino}-4-methyl-2,3-benzoxazin-1-one]
Δ agonism efficacies (A-B) (PR-A): 32

Maintenance of pregnancy (rat) [EC50] [1]: 0.1 mg/kg/day
Compound: CCC(=O)[C@@]1(C)CC[C@H]2[C@@H]3CCC4=CC(=O)CCC4=C3CC[C@@]21C [R5020, promegestone, reference compound]
MIB-5 positive cells (rat mammary epithelium): ~42%

Compound: Cc1noc(=O)c2ccc(NC(=O)C(C)(O)CC3(c4cccc(C(F)(F)F)c4)CC3)cc12 (single isomer, unassigned; (+)) [((+)-3), (+)-6-{2-hydroxy-3-[1-(3-trifluoromethylphenyl)-cyclopropyl]-2-methyl-propionylamino}-4-methyl-2,3-benzoxazin-1-one]
Δ agonism efficacies (A-B) (PR-A): 23
